Common to all, as to assay: NCI anticancer screen, dose series, 48 h
Assay [1] deals with A549 NSCLC.
Assay [2] deals with DU-145 prostate.
Assay [3] has as its system K-562 leukemia.
The subject of assay [4] is M14 melanoma.
Assay [5] deals with MALME-3M melanoma.
Assay [6] relates to MDA-MB-435.
In assay [7] the test system is NCI-H23 lung.
Assay [8] deals with PC-3 prostate.
Assay [9] deals with T-47D breast.
Assay [10] has as its system TK-10 renal.

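Test compounds were applied to cells in 96-well plates for 48 hours at 5 doses. GI50 = concentration required for 50% inhibition of growth. TGI: concentration producing complete growth inhibition.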

Turning to `COc1ccc2nc3cc([N+](=O)[O-])ccc3c(Nc3ccc(S(=O)(=O)NC(C)=O)cc3)c2c1`, the TGI in [1], in assay [2], in assay [3], in assay [4], in assay [5] and in assay [6] was more than 100 µM in each case. Besides, the TGI in assay [7], in [8], in assay [9] and in assay [10] was more than 100 µM each time.
Consider `CCCCCC(C)SC1(C(=O)OC)CC(OC(C)=O)C(NC(C)=O)C([C@H](OC(C)=O)[C@@H](COC(C)=O)OC(C)=O)O1` (stereo partly specified), for which the TGI in assay [1], in assay [2], in assay [3], in assay [4], in [5] and in assay [6] was more than 100 µM throughout. The TGI in assay [7], in assay [8], in assay [9] and in assay [10] was more than 100 µM in each case.
As for `CCNC(=O)c1cc(/C=C/c2ccc([N+](=O)[O-])o2)nc2ccccc12`, the TGI in [1] was more than 100 µM; in assay [2] it was more than 100 µM; in assay [3], more than 100 µM; in assay [4], 14.5 µM; in assay [5], more than 52.5 µM; in [6], 12.6 µM. The TGI in [7] is more than 100 µM; in assay [8] it was more than 100 µM; in assay [9], more than 100 µM; in assay [10], more than 91.9 µM.
For `COc1cc(/C=C2/C[C@H]3[C@@H]4CC=C5C[C@@H](OC(C)=O)CC[C@]5(C)[C@H]4CC[C@]3(C)NC2=O)cc(OC)c1OC`, the TGI was 59.3 µM in assay [1]; 55.3 µM in [2]; more than 100 µM in assay [3]; more than 100 µM in [4]; 60.3 µM in [5]; more than 100 µM in assay [6]. Moreover, the TGI in assay [7] is 67 µM; in assay [8] it was 44.3 µM; in [9] it was 72.8 µM; in assay [10] it was 83.3 µM.
With `C[C@@H]1CC[C@H]2C(C(O)CCCCC(O)C3=C(C(F)(F)F)O[C@@H]4O[C@@]5(C)CC[C@H]6[C@H](C)CC[C@@H]3[C@@]46OO5)=C(C(F)(F)F)O[C@@H]3O[C@@]4(C)CC[C@@H]1[C@]32OO4` (stereo partly specified), the GI50 in assay [1] was 8.87 µM; in assay [2], 99.9 µM; in assay [3], 16.2 µM; in [5], 44.7 µM; in assay [6] it was 10.5 µM; in [8], 3.96 µM. Besides, the GI50 is 2.52 µM in [9] and more than 100 µM in assay [10]. The TGI in assay [1], in assay [2], in assay [3], in [5], in assay [6] and in [8] was more than 100 µM each time. The values for the TGI in assay [9] and in assay [10] were 9.02 µM and more than 100 µM, respectively.
In the case of `CC(C)(Oc1ccc(Cl)cc1)C(=O)N(C(=O)N1CCC(c2ccccc2)CC1)c1ccccc1`, the TGI in [1], in assay [2], in assay [3], in assay [4], in assay [5] and in assay [6] was more than 100 µM each time. Besides, the TGI is more than 100 µM in [7], more than 100 µM in assay [8], more than 30.3 µM in assay [9] and more than 100 µM in assay [10].
On to `COc1ccc(C(SC2C(O)C(CO)OC2n2ccc(N)nc2=O)(c2ccccc2)c2ccc(OC)cc2)cc1` (stereo unspecified), for which the TGI in [1] stood at 54.2 µM; in assay [2], 39.4 µM; in [3], 88.3 µM; in [4], 27.9 µM; in assay [5], 28.3 µM; in [6] it was 28.2 µM. The TGI in assay [7] came to 57.6 µM; in assay [8] it was 41.1 µM; in assay [9], 47.4 µM; in [10], 66.2 µM.
Regarding `C=C(CO[Si](C)(C)C(C)(C)C)C(C)=O`, the TGI in assay [1] was more than 100 µM; in [2], more than 100 µM; in [3], more than 52.4 µM; in assay [4], 27.5 µM; in assay [5], 39.7 µM; in assay [6] it was 36.3 µM. Besides, the TGI in [7] was more than 56.3 µM; in [8], 98.5 µM; in assay [9], 56.1 µM; in [10], more than 100 µM.
For `Cc1cc(N2CCCC2)nc(N(CCNc2ccnc3cc(Cl)ccc23)Cc2ccco2)n1`, the GI50 in assay [1] is 5.9 µM; in assay [2], 6.72 µM; in assay [3], 2.26 µM; in assay [4], 2.93 µM; in [5], 4.13 µM; in [6], 3.33 µM. For the same compound, the GI50 in assay [7] is 2.75 µM; in assay [8] it was 2.84 µM; in assay [9] it was 2.39 µM; in [10] it was 5.46 µM. For the same compound, the TGI in assay [1] was more than 100 µM; in assay [2], more than 100 µM; in assay [3] it was more than 100 µM; in assay [4] it was more than 100 µM; in [5], 80.7 µM; in assay [6], more than 100 µM. Further, the TGI in [7] is more than 100 µM; in assay [8], more than 100 µM; in [9] it was 6.5 µM; in [10], 31.3 µM.
Turning to `OC(CCNCc1ccccc1)c1ccc2ccccc2c1` (stereo unspecified), the TGI in [1] is 36.3 µM; in [2], 39.6 µM; in assay [3], 50.9 µM; in [4] it was more than 100 µM; in assay [5] it was 38.7 µM; in assay [6], 44.2 µM. The TGI in assay [7] worked out at 62.1 µM; in assay [8] it was 47.4 µM; in assay [9] it was 49.9 µM; in [10], 33.6 µM.
Consider `O=C(Nc1ccccc1)N(CCCCN(Cc1ccccc1)C(=O)Nc1ccccc1)Cc1ccccc1`, for which the TGI in [1], in assay [2], in assay [3], in assay [4], in [5] and in assay [6] was more than 100 µM in each case. The TGI in assay [7], in [8], in assay [9] and in [10] was more than 100 µM each time.
In the case of `S=C1SCN(Cc2ccco2)CN1c1ccc(Br)cc1`, the TGI is 54.3 µM in assay [1]; more than 100 µM in [2]; 15.9 µM in assay [3]; 29 µM in [4]; 35.3 µM in assay [5]; 36 µM in assay [6]. Further, the TGI in assay [7] is 29.2 µM; in assay [8] it was 37 µM; in assay [9], more than 100 µM; in assay [10], 65.9 µM.
Take `CCOC(=O)c1nc2ccc(C(F)(F)F)cc2nc1Oc1cc(OC)cc(OC)c1`: the TGI in assay [1], in [2], in [3], in [4], in assay [5] and in assay [6] was more than 100 µM throughout. In addition, the TGI in assay [8], in assay [9] and in assay [10] was more than 100 µM in each case.
Take `Cc1ccc2c(c1C)C(=O)/C(=C/c1ccccc1C(=O)O)C2`: the TGI in assay [1], in assay [2], in [3], in [4], in assay [5] and in assay [6] was more than 100 µM in each case. Besides, the TGI in assay [7], in [8], in assay [9] and in [10] was more than 100 µM throughout.
As to `CC(C)C(OC(=O)c1ccc(NCc2cc(O)ccc2O)cc1)C(C)C`, the TGI is 20.7 µM in [1]; 20.9 µM in assay [2]; 4.12 µM in assay [3]; 6.93 µM in [4]; 3.3 µM in [5]; 5.59 µM in [6]. Further, the TGI in assay [7] was 6.56 µM; in assay [8], 3.96 µM; in [9] it was 3.4 µM; in assay [10], 3.62 µM.
Regarding `CCOC(=O)c1cc2c(C(=O)c3ccc([N+](=O)[O-])cc3)c(C(C)=O)ccc2[nH]1`, the TGI in assay [1], in [2], in assay [3], in assay [4], in assay [6] and in assay [7] was more than 100 µM in each case. Also, the TGI in [8], in assay [9] and in assay [10] was more than 100 µM in each case.
For the compound `O=C(Nc1nc2ccccc2s1)c1cc([N+](=O)[O-])ccc1Cl`, the TGI is more than 100 µM in [1]; 86.3 µM in [2]; more than 100 µM in assay [3]; more than 47.8 µM in assay [4]; more than 100 µM in [5]; more than 100 µM in [6]. Moreover, the TGI in assay [7] is more than 43.4 µM; in assay [8] it was more than 70.3 µM; in assay [9], more than 100 µM; in [10], more than 100 µM.
Turning to `CC1=NN(c2nc(N)nc(/C(C#N)=C/c3cccn3-c3cc(Cl)cc(Cl)c3)n2)C(C)(C)C1`, the TGI in assay [1], in assay [2], in assay [4], in [5], in assay [6] and in assay [7] was more than 100 µM each time. Besides, the TGI in assay [8], in [9] and in assay [10] was more than 100 µM throughout.
Take `COc1ccc(C)cc1Nc1nnc(-c2ccccc2N)s1`: the TGI in assay [1], in assay [2], in assay [3], in assay [4], in [5] and in assay [6] was more than 100 µM throughout. In addition, the TGI in assay [7], in assay [8] and in assay [9] was more than 100 µM each time.
On to `CCOC(=O)c1cc2c3c(c(C(C)=O)c(O)c2[nH]1)N(CC(C)CC)CC3` (stereo unspecified), for which the TGI in [1] is more than 100 µM; in [2] it was more than 100 µM; in assay [3], more than 100 µM; in assay [5], 81.4 µM; in [6], more than 100 µM; in [7], more than 100 µM. Moreover, the figures for the TGI in [8], in assay [9] and in assay [10] were more than 100 µM, 92.6 µM and more than 100 µM, respectively.
As for `CC1(C)C2C=CC1(C)C1(CC2)OCCO1` (stereo unspecified), the TGI in [2], in assay [3], in assay [4], in assay [5], in assay [6] and in assay [7] was more than 100 µM each time. The TGI in [8], in [9] and in [10] was more than 100 µM each time.
In the case of `O=c1ccn(CC2(CO)CC(Cc3ccccc3)C2)c(=O)[nH]1` (stereo unspecified), the TGI in [1], in assay [2], in [3], in assay [5], in assay [6] and in [7] was more than 100 µM throughout. Further, the TGI in [8], in [9] and in assay [10] was more than 100 µM throughout.
For the compound `Cc1cn(Cc2cnnn2CC2OC(n3cc(C)c(=O)[nH]c3=O)CC2O)c(=O)[nH]c1=O` (stereo unspecified), the TGI in assay [1], in assay [2], in [4], in assay [5], in assay [6] and in assay [7] was more than 100 µM in each case. For the same compound, the TGI in assay [8], in [9] and in assay [10] was more than 100 µM in each case.
On to `C/C(Nc1ccc(F)cc1)=C1/CCOC1=O`, for which the TGI in assay [1], in [2], in assay [3], in [5], in assay [6] and in assay [7] was more than 100 µM each time. Also, the TGI in assay [8], in assay [9] and in assay [10] was more than 100 µM in each case.
Regarding `CC1CC/C(=C\c2ccc(Cl)cc2)C2OC(N)=C(C#N)C(c3ccc(Cl)cc3)=C12` (stereo unspecified), the TGI amounted to 34.5 µM in assay [2]; 51.8 µM in assay [3]; 39 µM in assay [4]; 28.7 µM in [5]; 44.2 µM in [6]; 29.4 µM in assay [7]. The figures for the TGI in [8], in [9] and in assay [10] were 28.4 µM, 17.8 µM and 41.3 µM, respectively.

The record behind these values is PubChem BioAssay (NCI).
